One assay has as its target TEAD1 (Homo sapiens, UniProt P28347). As to the kind of experiment: cell-based TEAD1 palmitoylation (alkyne palmitic acid labelling, HEK293A).
For a further assay, the target named is TEAD2 (Homo sapiens, UniProt Q15562). As to the kind of experiment: in vitro autopalmitoylation of recombinant TEAD2 with alkyne palmitoyl-CoA, click/streptavidin blot. It counts as biochemical.
The target in another assay is TEAD4 (Homo sapiens, UniProt Q15561). Description: TEAD4 biochemical palmitoylation assay.
TEAD4, sequence (Q15561 whole entry): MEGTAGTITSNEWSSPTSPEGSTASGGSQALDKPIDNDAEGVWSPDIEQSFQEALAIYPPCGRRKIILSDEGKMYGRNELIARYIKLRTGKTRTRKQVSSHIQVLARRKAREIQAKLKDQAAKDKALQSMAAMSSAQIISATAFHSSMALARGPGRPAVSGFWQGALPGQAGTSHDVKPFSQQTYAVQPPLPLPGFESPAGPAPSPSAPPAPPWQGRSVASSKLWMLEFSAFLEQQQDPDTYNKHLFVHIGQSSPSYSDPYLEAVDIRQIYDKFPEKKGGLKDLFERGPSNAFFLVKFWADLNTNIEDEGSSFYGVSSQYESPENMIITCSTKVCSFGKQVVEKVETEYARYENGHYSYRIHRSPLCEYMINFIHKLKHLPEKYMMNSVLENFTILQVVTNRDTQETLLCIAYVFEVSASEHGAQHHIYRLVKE

Molecules are shown by their SMILES.

TEAD2, sequence (Q15562 217-447): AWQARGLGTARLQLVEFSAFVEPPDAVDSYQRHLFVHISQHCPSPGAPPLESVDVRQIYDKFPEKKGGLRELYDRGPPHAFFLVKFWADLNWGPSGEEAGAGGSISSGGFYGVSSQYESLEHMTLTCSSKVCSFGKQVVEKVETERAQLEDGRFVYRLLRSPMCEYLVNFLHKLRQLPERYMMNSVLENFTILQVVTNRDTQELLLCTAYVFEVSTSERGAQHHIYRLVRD
TEAD1, sequence (P28347 whole entry): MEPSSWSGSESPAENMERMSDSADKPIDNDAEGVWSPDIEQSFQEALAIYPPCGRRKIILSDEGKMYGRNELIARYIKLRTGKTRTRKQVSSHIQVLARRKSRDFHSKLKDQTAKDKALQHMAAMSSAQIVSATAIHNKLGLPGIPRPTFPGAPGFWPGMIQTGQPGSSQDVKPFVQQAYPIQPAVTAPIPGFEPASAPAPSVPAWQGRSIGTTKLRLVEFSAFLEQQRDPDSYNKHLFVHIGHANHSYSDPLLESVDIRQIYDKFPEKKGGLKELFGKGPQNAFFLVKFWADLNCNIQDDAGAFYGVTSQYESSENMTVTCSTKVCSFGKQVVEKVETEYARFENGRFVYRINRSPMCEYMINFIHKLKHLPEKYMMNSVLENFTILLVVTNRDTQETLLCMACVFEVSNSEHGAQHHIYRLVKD

Regarding `O=C(CSc1nnc[nH]1)Nc1ccc(C23CC4CC(CC(C4)C2)C3)cc1` [MGH-CP1, 2-((4H−1,2,4-triazol-3-yl)thio)-N-(4-((1 S,3 R,5 S)-adamantan-1-yl)phenyl)acetamide], the “cell-based TEAD1 palmitoylation (alkyne palmitic acid labelling, HEK293A)” value on TEAD1 was “MGH-CP12 inhibits TEAD1 palmitoylation in cells more potently than MGH-CP1 (Fig. 1d)”.

Take `O=C(CSc1nnc[nH]1)Nc1ccc(C23CC4CC(CC(C4)C2)C3)cc1Br` [MGH-CP12, 2-((4H−1,2,4-triazol-3-yl)thio)-N-(4-((1 S,3 R,5 S)-adamantan-1-yl)−2-bromophenyl)acetamide]: the IC50 (in general, the concentration at which inhibition is half-maximal) at TEAD2 was determined as 106 nM; on TEAD4 it was 852 nM. Moreover, the “cell-based TEAD1 palmitoylation (alkyne palmitic acid labelling, HEK293A)” value at TEAD1 is given as “MGH-CP12 inhibits TEAD1 palmitoylation in cells more potently than MGH-CP1 (Fig. 1d)”.

Turning to `O=C(CSc1nncs1)Nc1ccc(C23CC4CC(CC(C4)C2)C3)cc1` [MGH-CP28, 2-((1,3,4-thiadiazol-2-yl)thio)-N-(4-((1 S,3 R,5 S)-adamantan-1-yl)phenyl)acetamide], at TEAD2, the IC50 came out at 617 nM.

These data come from article PMC9643419 (Nature Communications, 2022).
